Here are results for 20 compounds from patent publication US20110152332A1, “Pesticidal Heterocyclic Compounds” (Bayer CropScience AG, priority 2009, published 2011).

One experiment concerns Tobacco cutworm (Spodoptera litura) larvae. In words: Test against tobacco cutworm (Spodoptera litura) larvae, leaf dip. The format is in vivo. To be noted: active compound concentration 100 ppm; third instar larvae on dipped sweet potato leaves; after 7 days. As for the experimental part:
(§1) Unless described otherwise, the test solutions were prepared as follows:
(§2) The active compound, 1 part by weight of the active compound was admixed with the solvent in the above described amount which contains the emulsifying agent in the above described amount. The mixture was then diluted with water to specific concentration.
(§3) In order to prepare the test solution containing the active compound, 1 part by weight of the active compound was admixed with 3 parts by weight of the solvent dimethyl formamide which contains 1 part by weight of the emulsifying agent polyoxyethylene alkylphenyl ether. This mixture is then diluted with water to the specific concentration.
(§4) Solvent: dimethyl formamide, 3 parts by weight; emulsifying agent: polyoxyethylene alkylphenyl ether, 1 part by weight
Leaves of sweet potato were immersed in the test solution at the appropriate concentration, and the leaves were dried in air. The leaves were then placed in a petri dish having a diameter of 9 cm, and ten Spodoptera litura at third instar larvae were released therein. The petri dishes were placed in a temperature-controlled chamber at 25° C. After 2 days and 4 days more sweet potato leaves were added. After 7 days, the number of dead larvae was counted to calculate the insecticidal activity. An insecticidal activity of 100% means that all larvae were killed, whereas an insecticidal activity of 0% means that no larva was killed. In the current test, the results of two petri dishes for each treatment were averaged.
`O=C(NCc1ccc(N2CC(c3cc(Cl)cc(Cl)c3)(C(F)(F)F)OC2=O)cc1C(F)(F)F)C1CC1` (stereo not shown) [Compound 1-5] showed an insecticidal activity of 100%.

`CCNC(=O)NCc1ccc(N2CC(c3cc(Cl)cc(Cl)c3)(C(F)(F)F)OC2=O)cc1C(F)(F)F` (stereo not shown) [Compound 1-13]: the insecticidal activity stood at 100%.

In turn, `CC(C)(C)OC(=O)NCc1ccc(N2CC(c3cc(Cl)cc(Cl)c3)(C(F)(F)F)OC2=O)cc1C(F)(F)F` (stereo not shown) [Compound 1-14] had an insecticidal activity of 100%.

As to `NCc1ccc(N2CC(c3cc(Cl)c(Cl)c(Cl)c3)(C(F)(F)F)OC2=O)cc1C(F)(F)F` (stereo not shown) [Compound 1-15], the insecticidal activity was 100%.

In turn, `CCCC(=O)NCc1ccc(N2CC(c3cc(Cl)c(Cl)c(Cl)c3)(C(F)(F)F)OC2=O)cc1C(F)(F)F` (stereo not shown) [Compound 1-18] registered an insecticidal activity of 100%.

Compound `O=C(NCc1ccc(N2CC(c3cc(Cl)c(Cl)c(Cl)c3)(C(F)(F)F)OC2=O)cc1C(F)(F)F)C1CC1` (stereo not shown) [Compound 1-19] displayed an insecticidal activity of 100%.

`O=C(CC1CC1)NCc1ccc(N2CC(c3cc(Cl)c(Cl)c(Cl)c3)(C(F)(F)F)OC2=O)cc1C(F)(F)F` (stereo not shown) [Compound 1-20] came in with an insecticidal activity of 100%.

Turning to `CSCC(=O)NCc1ccc(N2CC(c3cc(Cl)c(Cl)c(Cl)c3)(C(F)(F)F)OC2=O)cc1C(F)(F)F` (stereo not shown) [Compound 1-22], the insecticidal activity came out at 100%.

For `CC(C)(C)OC(=O)NCc1ccc(N2CC(c3cc(Cl)c(Cl)c(Cl)c3)(C(F)(F)F)OC2=O)cc1C(F)(F)F` (stereo not shown) [Compound 1-28], the insecticidal activity is 100%.

`CC(=O)NCc1ccc(N2CC(c3cccc(C(F)(F)F)c3)(C(F)(F)F)OC2=O)cc1C(F)(F)F` (stereo not shown) [Compound 1-72] showed an insecticidal activity of 100%.

Consider `CCCC(=O)NCc1ccc(N2CC(c3cccc(C(F)(F)F)c3)(C(F)(F)F)OC2=O)cc1C(F)(F)F` (stereo not shown) [Compound 1-74], for which the insecticidal activity is 100%.

`O=C(CC(F)(F)F)NCc1ccc(N2CC(c3cccc(C(F)(F)F)c3)(C(F)(F)F)OC2=O)cc1C(F)(F)F` (stereo not shown) [Compound 1-77] showed an insecticidal activity of 100%.

`CC(=O)NCc1ccc(N2CC(c3cc(C(F)(F)F)cc(C(F)(F)F)c3)(C(F)(F)F)OC2=O)cc1C(F)(F)F` (stereo not shown) [Compound 1-128] yielded an insecticidal activity of 100%.

Turning to `O=C(NCc1ccc(N2CC(c3cc(C(F)(F)F)cc(C(F)(F)F)c3)(C(F)(F)F)OC2=O)cc1C(F)(F)F)C1CC1` (stereo not shown) [Compound 1-131], the insecticidal activity is reported as 100%.

Turning to `CC(=O)NCc1ccc(N2CC(c3cc(C(F)(F)F)cc(C(F)(F)F)c3)(C(F)(F)F)OC2=O)cc1Cl` (stereo not shown) [Compound 1-142], the insecticidal activity worked out at 100%.

The compound `COCCC(=O)NCc1ccc(N2CC(c3cc(C(F)(F)F)cc(C(F)(F)F)c3)(C(F)(F)F)OC2=O)cc1Cl` (stereo not shown) [Compound 1-151] yielded an insecticidal activity of 100%.

On to `CC(=O)NCc1ccc(N2CC(c3cc(C(F)(F)F)cc(C(F)(F)F)c3)(C(F)(F)F)OC2=O)cc1C` (stereo not shown) [Compound 1-156], for which the insecticidal activity is 100%.

Turning to `CCC(=O)N[C@H](C)c1ccc(N2CC(c3cc(Cl)c(Cl)c(Cl)c3)(C(F)(F)F)OC2=O)cc1` (stereo partly shown) [Compound 1-371-b], the insecticidal activity came out at 100%.

Compound `CCC(=O)NC1CCc2cc(N3CC(c4cc(Cl)cc(Cl)c4)(C(F)(F)F)OC3=O)ccc21` (stereo not shown) [Compound 4-3] gave an insecticidal activity of 100%.

The next experiment deals with Cucurbit leaf beetle (Aulacophora femoralis). As to the kind of experiment: Test against cucurbit leaf beetle (Aulacophora femoralis), leaf dip. Type of experiment: in vivo. To be noted: active compound concentration 100 ppm; second instar larvae on dipped cucumber leaves; after 7 days. The procedure:
as §1, §2, §3, §4
Leaves of cucumber were immersed in the test solution at the appropriate concentration, and the leaves were dried in air. The leaves were then put in a plastic cup containing sterilized black soil and five Aulacophora femoralis at second instar larvae were released in the cup. The cups were placed in a temperature-controlled chamber at 25° C. After 7 days, the number of dead larvae was counted, and thus the insecticidal activity was calculated. An insecticidal activity of 100% means that all larvae were killed, whereas an insecticidal activity of 0% means that no larva was killed.
Compound `O=C(NCc1ccc(N2CC(c3cc(Cl)cc(Cl)c3)(C(F)(F)F)OC2=O)cc1C(F)(F)F)C1CC1` (stereo not shown) [Compound 1-5] gave an insecticidal activity of 100%.

As to `CC(C)(C)OC(=O)NCc1ccc(N2CC(c3cc(Cl)cc(Cl)c3)(C(F)(F)F)OC2=O)cc1C(F)(F)F` (stereo not shown) [Compound 1-14], the insecticidal activity is given as 100%.

Turning to `O=C(NCc1ccc(N2CC(c3cc(Cl)c(Cl)c(Cl)c3)(C(F)(F)F)OC2=O)cc1C(F)(F)F)C1CC1` (stereo not shown) [Compound 1-19], the insecticidal activity worked out at 100%.

Compound `CSCC(=O)NCc1ccc(N2CC(c3cc(Cl)c(Cl)c(Cl)c3)(C(F)(F)F)OC2=O)cc1C(F)(F)F` (stereo not shown) [Compound 1-22] displayed an insecticidal activity of 100%.

The compound `CC(C)(C)OC(=O)NCc1ccc(N2CC(c3cc(Cl)c(Cl)c(Cl)c3)(C(F)(F)F)OC2=O)cc1C(F)(F)F` (stereo not shown) [Compound 1-28] displayed an insecticidal activity of 100%.

In turn, `CC(=O)NCc1ccc(N2CC(c3cccc(C(F)(F)F)c3)(C(F)(F)F)OC2=O)cc1C(F)(F)F` (stereo not shown) [Compound 1-72] displayed an insecticidal activity of 100%.

`CCCC(=O)NCc1ccc(N2CC(c3cccc(C(F)(F)F)c3)(C(F)(F)F)OC2=O)cc1C(F)(F)F` (stereo not shown) [Compound 1-74]: the insecticidal activity worked out at 100%.

`O=C(CC(F)(F)F)NCc1ccc(N2CC(c3cccc(C(F)(F)F)c3)(C(F)(F)F)OC2=O)cc1C(F)(F)F` (stereo not shown) [Compound 1-77] returned an insecticidal activity of 100%.

Regarding `CC(=O)NCc1ccc(N2CC(c3cc(C(F)(F)F)cc(C(F)(F)F)c3)(C(F)(F)F)OC2=O)cc1C(F)(F)F` (stereo not shown) [Compound 1-128], the insecticidal activity is 100%.

In turn, `O=C(NCc1ccc(N2CC(c3cc(C(F)(F)F)cc(C(F)(F)F)c3)(C(F)(F)F)OC2=O)cc1C(F)(F)F)C1CC1` (stereo not shown) [Compound 1-131] came in with an insecticidal activity of 100%.

On to `CC(=O)NCc1ccc(N2CC(c3cc(C(F)(F)F)cc(C(F)(F)F)c3)(C(F)(F)F)OC2=O)cc1Cl` (stereo not shown) [Compound 1-142], for which the insecticidal activity is 100%.

Compound `CSCC(=O)NCc1ccc(N2CC(c3cc(C(F)(F)F)cc(C(F)(F)F)c3)(C(F)(F)F)OC2=O)cc1Cl` (stereo not shown) [Compound 1-148] gave an insecticidal activity of 100%.
